Active and inactive are the calls of the source. How the calls were made is not given here.

For the test, the target named is glucose-6-phosphate dehydrogenase-6-phosphogluconolactonase (Plasmodium falciparum 3D7). The experiment in a line: inhibition of P. falciparum G6PD activity – biochemical, kinetic NADPH detection, orthogonal assay, dose response (AID 540269). The following applies: purified PfG6PD-6PGL.
In general, IC50 refers to the midpoint of a concentration-inhibition curve. For `COc1cc(O)c(C(=O)O)c(-c2cc(O)c(O)cc2C)c1`, the IC50 was 19.4 µM. In the case of `O=c1c2ccccc2sn1-c1ccc(Cl)cc1Cl`, the IC50 is 12.9 µM.

With `CCc1ccc(OCC(=O)N/N=C/c2cc([N+](=O)[O-])ccc2N2CCOCC2)cc1`, the IC50 was > 80 µM (inactive). With `CC(NC(=O)c1sc2cc([N+](=O)[O-])ccc2c1Cl)C(C)(C)C` (stereo not given), the IC50 was > 80 µM (inactive). Under `COc1cc(/C=C/C(=O)c2ccc([N+](=O)[O-])o2)ccc1O` stands > 80 µM (inactive); under `O=[N+]([O-])c1c(NCCCO)cc(Sc2nc3ccccc3s2)c2nonc12`, 73.7 µM. As for `O=C(CNC(=O)c1cccs1)OCC(=O)c1ccc([N+](=O)[O-])cc1`, the figure is > 80 µM (inactive); as for `COc1cc(SSc2cc(OC)cc([N+](=O)[O-])c2N)c(N)c([N+](=O)[O-])c1`, 44.6 µM; as for `Cc1cccc(C(=O)Nc2nnc(S(=O)(=O)N3CCCCCC3)s2)c1`, 16.9 µM.

For the molecule `O=[N+]([O-])c1cccc(SSc2cccc([N+](=O)[O-])c2)c1`, the concentration for half-maximal inhibition (IC50) is 71.5 µM. On to `CCC(C)c1ccccc1OCCn1ccnc1` (stereo not given), for which the IC50 is > 80 µM (inactive). As for `Cc1nc2ccc(Nc3nc4cc(S(=O)(=O)N5CCOCC5)ccc4o3)cc2s1`, the figure is > 80 µM (inactive); as for `O=S(=O)(Nc1cccc2cccnc12)c1ccccc1`, 20.9 µM; as for `CCn1c(SCc2nc3scc(-c4ccccc4)c3c(=O)[nH]2)nnc1-c1cccs1`, 58 µM. Under `CCN(CC)C(=S)SSC(=S)N(CC)CC` stands > 80 µM (inactive); under `N#Cc1ccc(Oc2cccc3cccnc23)c([N+](=O)[O-])c1`, > 80 µM (inactive); under `COc1cc(OC)c(C2CC(=O)N3CN(c4ccccc4)CSC3=C2C#N)cc1OC` (stereo not given), > 80 µM (inactive). As for `Cc1cc(C)c2c(=O)n(CC(=O)Nc3cccc(Cl)c3C)sc2n1`, the figure is 49.6 µM; as for `CC(NC1=CC(=O)c2cccnc2C1=O)C(O)c1ccccc1` (stereo not given), 45.1 µM; as for `Cc1ccc(Nc2cc(C)c(O)c(C)c2)cc1`, > 80 µM (inactive). Take `Cn1sc2ccccc2c1=O`: the IC50 was 39.5 µM. Under `CC(=O)Nc1ccc2sn(-c3ccccc3)c(=O)c2c1` stands 24.1 µM. For the molecule `Nc1c(C(=O)Nc2ccc(F)cc2)sc(=S)n1-c1ccccc1F`, the IC50 was > 80 µM (inactive).

In the case of `COc1ccc(NC(C)C(=O)N/N=C/c2cc(Br)ccc2OC)cc1` (stereo not given), the IC50 was > 80 µM (inactive). As for `CNCc1ccccc1Sc1cc(O)ccc1O`, the figure is 54.5 µM; as for `O=C1Nc2ccccc2C(=O)C1(Cl)Cc1ccccc1` (stereo not given), > 80 µM (inactive); as for `Cc1ccc(C(=O)/C=C/C(=O)c2ccc(C)cc2)cc1`, > 80 µM (inactive).

With `O=C1C=CC(=O)N1CCCCCCCCCCN1C(=O)C=CC1=O`, the IC50 was > 80 µM (inactive). Under `COc1ccc(CCn2c(NN=C3CCCC3)nc3c2c(=O)[nH]c(=O)n3C)cc1` stands > 80 µM (inactive); under `O=[N+]([O-])c1ccc2c(c1)-c1ccccc1C2O` (stereo not given), 42.9 µM.

Consider `Cn1c(=O)c2[nH]c(-c3ccccc3)c(O)c2n(C)c1=O`, for which the IC50 was > 80 µM (inactive). Under `Cc1nnc(SCC(=O)c2cc(C)n(-c3ccc4c(c3)OCO4)c2C)s1` stands > 80 µM (inactive); under `CN(C)c1ccc(C=c2c3ccccc3n3c2c2ccccc2[n+]3C)cc1`, 32.8 µM; under `CCC(=O)OCCNc1cc(Sc2nc3ccccc3s2)c2nonc2c1[N+](=O)[O-]`, > 80 µM (inactive).

For the molecule `Cc1ccc(-c2csc(NC(=O)c3ccccc3F)c2C(=O)O)cc1`, the IC50 was 53.7 µM. As for `COc1ccc(CNC(=O)Cc2cn(C)c3ccccc23)c(OC)c1`, the figure is > 80 µM (inactive); as for `COc1ccc(C(=O)/C=C2\Sc3ccccc3N2C)cc1`, 43.4 µM; as for `O=C(CNC(=O)c1cccs1)NCC(=O)OCC(=O)c1ccc([N+](=O)[O-])cc1`, 62.9 µM.

In the case of `CCN(CC)c1ccc(NC(=O)c2cccc(C)c2)cc1S(=O)(=O)Nc1ccccc1OC`, the IC50 was 31.3 µM. Under `CCN1CCN(c2nc(C)nc3c2sc(=S)n3C)CC1` stands > 80 µM (inactive); under `COc1cc(/C=N/Nc2nncn2N)ccc1OCc1c(C)no[n+]1[O-]`, > 80 µM (inactive); under `O=C(Cn1sc2ccccc2c1=O)NC12CC3CC(CC(C3)C1)C2`, 13.5 µM.

Consider `O=C(Nc1nnc(S(=O)(=O)N2CCCCC2)s1)c1ccc(Cl)cc1`, for which the IC50 is 25.6 µM.

Consider `Cc1ccc(NS(=O)(=O)c2ccccc2Cl)c2c1CC(C)(C)O2`, for which the IC50 was > 80 µM (inactive). As for `CN(C)c1ccc(C=c2c3cc(O)ccc3n3c2cc(-c2ccccc2)[n+]3C)cc1`, the figure is > 80 µM (inactive); as for `[O-]/[N+](=C\c1ccco1)c1ccc(Cl)cc1`, 76.7 µM; as for `CN1CCN(C(=S)c2ccc([N+](=O)[O-])cc2)CC1`, > 80 µM (inactive).

Regarding `Cc1ccc(/C=C/C(=O)Nc2ccc([N+](=O)[O-])c(NC(=O)/C=C/c3ccc(C)o3)c2)o1`, the IC50 was > 80 µM (inactive). As for `COc1ccc(Cl)cc1NC(=O)c1cccc([N+](=O)[O-])c1O`, the figure is > 80 µM (inactive). Under `CN1CCc2cccc3c2[C@H]1Cc1ccc(O)c(O)c1-3` stands > 80 µM (inactive); under `Brc1cc2[nH]cnc2c2ccccc12`, > 80 µM (inactive).

For the molecule `O=C(CN1CCN(c2ccc(O)cc2)CC1)Nc1cc(S(=O)(=O)N2CCOCC2)ccc1Cl`, the IC50 was > 80 µM (inactive).

Consider `CC(C)Sc1nnc(NC(=O)c2ccc3c(c2)OCO3)s1`, for which the IC50 is 29.5 µM. Under `CC(=O)Nc1ccc2c(c1)Cc1cc(N3C(=O)C=CC3=O)ccc1-2` stands 27.2 µM; under `CCn1c([N+](=O)[O-])nc2c1c(=O)[nH]c(=O)n2C`, > 80 µM (inactive). On to `CCC(C)N(CCNC(=O)c1ccc2c(c1)NC(=O)c1ccccc1S2)C1CCCCC1` (stereo not given), for which the IC50 is 6.35 µM.

In the case of `Cc1ccc(/C=C/C(=O)NCC2COc3ccccc3O2)o1` (stereo not given), the IC50 was > 80 µM (inactive). Under `O=S(=O)(Nc1ccccc1F)c1cccc(NC(=S)NCCN2CCOCC2)c1` stands 50.2 µM; under `COc1ccccc1N1CSC2=C(C#N)C(c3ccc(SC)cc3)CC(=O)N2C1` (stereo not given), 62.6 µM; under `COc1cc(/C=C2\SC(c3ccc(C)cc3)=NC2=O)cc(OC)c1O`, > 80 µM (inactive). Under `COc1cc(N)c2ncccc2c1SC` stands 38.8 µM; under `CN1C(=O)C(N=Nc2ccc([N+](=O)[O-])cc2)SC1=S` (stereo not given), > 80 µM (inactive).

For `C[C@H](NC(N)=O)C(=O)Nc1ccc(N2CCOCC2)c(S(=O)(=O)Nc2ccc(Cl)cc2)c1`, the IC50 was > 80 µM (inactive). Under `Cc1[nH]c(=S)c(C#N)c(C)c1CCC#N` stands > 80 µM (inactive). For `Nc1cc(N)c(OCC(F)(F)F)cc1OCC(F)(F)F`, the IC50 is > 80 µM (inactive). Under `CC1=CC(C)(C)Nc2ccc(OC(=O)CN3C(=O)c4cccc5cccc(c45)C3=O)cc21` stands 76.9 µM; under `Cc1ccc(S(=O)(=O)/N=C2/C=C(C3C(=O)CC(C)(C)CC3=O)C(=O)c3ccccc32)cc1`, > 80 µM (inactive); under `Cn1cc(S(=O)(=O)CC(=O)N2CCc3ccccc32)c2ccccc21`, > 80 µM (inactive). As for `O=C(O)CSc1cc(NS(=O)(=O)c2ccc(Cl)cc2)c2ccccc2c1O`, the figure is 46.3 µM; as for `Oc1ccc(C2C[C@H]3CC[C@@H]2C3)cc1O` (stereo not given in full), 48.6 µM; as for `CC(C)c1cc2c(c(O)c1O)[C@@]13CCCC(C)(C)C1CC2OC3=O` (stereo not given in full), 58.4 µM.

Take `Nc1[nH]c(=O)[nH]c(=O)c1N=Cc1ccccc1`: the IC50 is 20.6 µM.

As to `COc1ccc(-n2c(=S)[nH]c3c(sc(=S)n3-c3ccccc3)c2=O)c(OC)c1`, the IC50 was > 80 µM (inactive). As for `Cc1ccc(S(=O)c2ccc([N+](=O)[O-])c3nonc23)cc1` (stereo not given), the figure is > 80 µM (inactive). As for `Oc1ccc(/C=N/N=C(c2ccccc2)c2ccccc2)c(O)c1O`, the figure is 54.6 µM. Under `O=S(=O)(Nc1cc(Sc2cccc3cccnc23)c(O)c2ccccc12)c1ccc(F)cc1` stands 59.4 µM. For `Cc1nc(COC(=O)c2cc(O)c3ccccc3c2O)cs1`, the IC50 was > 80 µM (inactive). As for `Cc1cc(C)c(S(=O)(=O)/N=C2/C=C(SCC(=O)O)C(=O)c3ccccc32)cc1C`, the figure is > 80 µM (inactive); as for `O=S(=O)(Nc1ccc(Cl)cc1)c1ccc(N2CCOCC2)c(NC(=S)NCCN2CCOCC2)c1`, > 80 µM (inactive). Under `Nc1c(O)cccc1C(=O)O` stands 40.9 µM; under `O=[N+]([O-])c1c(NCCO)cc(Sc2nc3ccccc3s2)c2nonc12`, > 80 µM (inactive).

For `Oc1ccc(C23CC4CC(CC(C4)C2)C3)cc1O`, the IC50 is 37.8 µM. Regarding `O=C(Nc1ccccn1)c1sc2cc([N+](=O)[O-])ccc2c1Cl`, the IC50 is > 80 µM (inactive).

`O=C(COC(=O)c1cnccn1)c1ccc([N+](=O)[O-])cc1`: the IC50 was > 80 µM (inactive). `NCCc1cc(O)c(O)cc1O`: the IC50 is 39.1 µM.

For the molecule `O=c1c2ccccc2sn1-c1nccs1`, the IC50 is 23.1 µM. Take `Cc1ccc(-c2nc(N)s[n+]2-c2ccccc2)cc1`: the IC50 is > 80 µM (inactive). With `N#Cc1ccc2c(=O)n(-c3ccccc3)sc2c1`, the IC50 is 39.6 µM. Under `O=C(CSc1nc2cc(Cl)ccc2s1)c1ccco1` stands > 80 µM (inactive); under `COc1cccc(CNc2ccc3[nH]c(=O)[nH]c3c2)c1OCc1ccccc1Cl`, > 80 µM (inactive); under `COc1ccc(CCn2c(NN=C(C)C)nc3c2c(=O)[nH]c(=O)n3C)cc1`, > 80 µM (inactive).

As to `CC(=O)c1cccc(NC(=O)c2cnn(-c3ccccc3)c2C)c1`, the IC50 is 58.4 µM. As for `CN1/C(=C\C(=O)c2cccs2)Sc2ccccc21`, the figure is 26.1 µM; as for `Cn1c(=O)[nH]c(=O)c2c1nc(SCCN1CCCCC1)n2CCCc1ccccc1`, 56.7 µM; as for `Cc1nnc(N/N=C\c2ccc(-c3cccc(C(=O)O)c3)o2)n1N`, 40.1 µM.
